Consider 2 molecules from publication PMC6609541, “Enterohepatic circulation of glucuronide metabolites of drugs in dog” (Pharmacology Research & Perspectives, 2019).

By AUC(0-inf) is commonly meant the area under the concentration-time curve extrapolated to infinity. A word on the half-life: it is the time in which the quantity being followed falls by half. Lower therefore signals rapid decline. For orientation: clearance means the volume of plasma or blood freed of the substance per unit of time. Low values mean inefficient removal, high ones efficient removal.

Several values for one entry are separate records, joined by “and”; a condition that tells them apart may be missing. Equal entries are not always repeated. Where two headings read alike, the source gives them in different places. Marks after values point to notes of the source that are not given here.

A short description of series [1]: Hepatocyte intrinsic clearance with and without ABT (dog). Type of series: in vitro ADME. The note with it: cryopreserved dog hepatocytes, dog hepatocytes, 0.3 µmol/L compound. The procedure: (§1) The intrinsic clearance was determined in cryopreserved dog and human hepatocytes essentially as described previously.4 The assay incubation contained 0.3 µmol/L compound and hepatocytes at a concentration of 10^6 cells/mL, with and without 30 minutes pre‐incubation of 1 mmol/L ABT. Intrinsic clearance measurement was initiated by the addition of compound and the incubation quenched at 0.6, 15, 30, 60 and 90 minutes for DPTQ, and at 0.6, 15, 30, 60, 120 and 240 minutes by addition of acetonitrile with 0.1% formic acid. Samples were centrifuged at 3500 g for 10 minutes and the supernatant was analyzed to quantify parent compound loss and the intrinsic clearance values (μL/min/10^6 cells) were calculated using following equation for incubations with and without ABT. CLint=-kdep×incubation volume/10^6cells
(§2) In which the depletion rate constant (k dep) is the slope determined using linear regression from the log transformed percentage remaining on the y‐axis vs time on the x‐axis (min^− ^1). The fraction of metabolism (fm) by P450 was determined by the measurement of the percentage of inhibition of Clint by ABT.

Series [2] concerns cryopreserved dog hepatocytes. The description is as above. Type of series: in vitro ADME. The note with it: for percentage of the metabolism not inhibited by ABT / % of inhibition by ABT: dog hepatocytes; for % of inhibition by ABT: inhibition of Clint by 1 mmol/L ABT (fm by P450); for Hepatic fm by UGT: dog, in hepatocytes. The procedure:
as §1, §2

Series [3] is described as follows: Recovery of parent drug and glucuronide metabolites in urine, bile and feces of BDC and intact dogs. The series is classed as in vivo, beagle dog. The note with it: for % dose in feces, Parent / % dose in bile, Parent / % dose in urine, Parent / renal excretion of parent drug: 0.5 mg/kg IV; for % dose in feces, Parent / % dose in bile, Parent / % dose in urine, Parent: over 48 hours; for % dose in bile, Parent: 0.5 mg/kg; for renal excretion of parent drug: dog (BDC and intact); for Biliary excretion % of glucuronide / Urinary excretion % of glucuronide: dog; for Biliary excretion % of glucuronide: BDC; for Urinary excretion % of glucuronide: BDC and/or intact. The procedure:
(§3) Canagliflozin and DPTQ, both at 0.5 mg/kg, were administered intravenously in 25 mmol/L phosphate buffer (pH 8) containing 10% dimethylacetamide (v/v), 15% ethanol (v/v) via a cephalic vein. Total volume administered was 1 mL/kg. Dogs were housed in stainless steel metabolic cages during the study. Serial blood samples were collected from the jugular vein at 0.08, 0.25, 0.5, 1, 2, 4, 8, 12, 24, 36 and 48‐hours post‐dose with collection tubes containing anticoagulant K3‐EDTA. Plasma was obtained by centrifugation at 1600g for 10 minutes. Cumulative urine samples were collected between 0‐12, 12‐24, 24‐36 and 36‐48 hours and feces were collected between 0‐24 and 24‐48 hours in both intact and BDC dogs. Bile samples were collected between 0‐12, 12‐24, 24‐36, 36‐48 hours in BDC dogs. The weights of all samples except blood and plasma were recorded. All the samples were stored at −70°C until analysis by liquid chromatography tandem‐mass spectrometry (LC‐MS/MS) was performed.
Aliquots of plasma, urine, bile or feces homogenate (50 µL) were incubated with equal volume of 0.2 mol/L sodium acetate buffer (pH 5.0), and 15 μL of β‐glucuronidase (>85 000 units/mL) in a 37°C water bath overnight. The samples were extracted for LC‐MS/MS after the hydrolysis was performed. […] The concentration of O‐glucuronides was determined by subtracting the concentration from the aliquot without treatment of β‐glucuronidase from the one with enzyme treatment.
(§4) Canagliflozin and DPTQ in plasma, bile, urine and feces were quantified using LC‐MS/MS. All samples plasma, urine and bile) were mixed with an organic internal standard solution essentially described previously,15 to precipitate protein and centrifuged, and the resulting supernatants were analyzed using AB Sciex API 4000 quadrupole mass spectrometer (Applied Biosystems, Foster City, CA) equipped with a TurboIonSpray interface. The feces samples were homogenized in MeOH:H2O (1:1) and shaken vigorously to obtain slurry. The homogenates then went through the sample extraction along with other matrices. The blank plasma, urine, bile and feces was spiked with internal standard for calibration curve. The pumps were Shimadzu LC‐10AD units with a SCL‐10A controller (Kyoto, Japan), and a Z‐215 liquid handler (Gilson, Middleton, WI) was used as the autosampler. All compounds were chromatographically separated using a Betasil javelin C18 20 × 2.1‐mm 5‐μm HPLC column (Thermo Fisher Scientific, Waltham, MA). The mobile phase consisted of solvent A (1 mmol/L ammonium bicarbonate in water) and solvent B (1 mmol/L ammonium bicarbonate in methanol). Drugs and metabolites were detected in positive ion mode, using selected ion mode: canagliflozin 462.2 → 191.1 m/z, DPTQ 436.2 → 158.9 m/z, and DPTQ‐O‐glucuronide 612.2 → 418.1.

The nature of series [4]: Plasma pharmacokinetics after single intravenous administration in bile duct cannulated (BDC) and intact beagle dogs. As to conditions: for EHC / AUC(0-inf) / half-life / clearance / AUC / Vd: dog; for EHC: enterohepatic circulation; for AUC(0-inf) / half-life / clearance / AUC / Vd: male, beagle, plasma, iv; for clearance: plasma clearance; for AUC: mean ± SD n=4, read-out: AUC0‐48 hr. Type of series: in vivo, beagle dog. The procedure: Male beagle dogs were obtained from Charles River Laboratories Inc (Wilmington, MA). Pharmacokinetic (PK) studies in intact dogs were conducted at Covance (Greenfield, IN), while bile duct cannulation surgery and PK studies were conducted in these dogs at Covance (Madison, WI). Dogs (weight: 9‐12 kg), were acclimated prior to study initiation according to Standard Operating Procedures (Covance). All intravenous compound administration was by an intravenous catheter implanted in the cephalic vein. Access to food and water was allowed ad libitum. All animal procedures were approved by the Institutional Animal Care and Use Committee at Covance. Replacement bile was not administered during the study since collection of bile was scheduled for a period of 48 hours, replacement is typically administered for studies lasting more than 60 hours.
as §3
Noncompartmental pharmacokinetic parameters were calculated using Watson version 7.4 (Thermo Scientific, Waltham, MA). Statistical significance of differences for pharmacokinetic parameters between two groups was examined with Student's t test using Sigmaplot 12.5 (Systat Software Inc, San Jose, CA).
as §4

Setting [5] is: with 1 mmol/L ABT, 30 minutes pre-incubation, 1 mmol/L ABT pre‐incubation 30 minutes, read-out: Clint with ABT.
Where [6] appears, read: 10^6 cells/mL, read-out: Clint without ABT.
The mark [7] stands for this setting: 0.5 mg/kg, BDC dog, 0.5 mg/kg IV bolus.
Where [8] appears, read: 0.5 mg/kg, BDC dog, 0.5 mg/kg IV bolus, read-out: V dss.
Setting [9] is: 0.5 mg/kg, intact dog, 0.5 mg/kg IV bolus.

Regarding `Cc1ccc([C@@H]2O[C@H](CO)[C@@H](O)[C@H](O)[C@H]2O)cc1Cc1ccc(-c2ccc(F)cc2)s1` [Canagliflozin], the hepatocyte CLint at 0.3 µmol/L in series [1] (setting [5]) stood at 6 ± 3.3 µL/min/1e6 cells. For the same molecule, in series [1] (setting [6]), the hepatocyte CLint at 0.3 µmol/L came out at 6.5 ± 3.6 µL/min/1e6 cells. For the same molecule, in series [2], the “percentage of the metabolism not inhibited by ABT” value is listed as 87.3%, the “% of inhibition by ABT” value is given as 12.7 ± 14.1% and the “Hepatic fm by UGT” value is reported as “Low (Low 0%‐30%)”. Also, in series [2] (listed as canagliflozin), the “% of inhibition by ABT” value stood at 12.7%. Moreover, in series [3] (BDC dog), the “% dose in feces, Parent” value is 3.3 ± 0.7 % dose and the “% dose in bile, Parent” value is 4.66 ± 1.4 % dose. In addition, in series [3] (BDC dog, ND = below quantitative limit 1 ng/mL), the “% dose in urine, Parent” value was found to be 0.05 ± 0.08 % dose. Also, the “% dose in bile, Parent” value in series [3] (BDC dog, listed as canagliflozin) was 4.66 % dose. Also, in series [3], the “renal excretion of parent drug” value is recorded as < 1 % of dose, the “Biliary excretion % of glucuronide” value is “Low (Low 0%‐30%)” and the “Urinary excretion % of glucuronide” value is on record as “Low (Low 0%‐30%)”. In series [3] (intact dog), the “% dose in feces, Parent” value is recorded as 2.25 ± 1.3 % dose and the “% dose in urine, Parent” value came to 0.27 ± 0.15 % dose. Further, the EHC result in series [4] was “No”. Besides, in series [4] (setting [7]), the area under the curve AUC(0-inf) turned out to be 16.4 ± 5.9 µM·h, the half-life is 10.9 ± 1.8 h, the clearance stood at 0.0792 ± 0.03 L/h/kg and the AUC was determined as 15.7 ± 5.4 µM·h. For the same molecule, the Vd in series [4] (setting [8]) was 0.87 ± 0.28 L/kg. For the same molecule, in series [4] (setting [9]), the AUC(0-inf) is 21.2 ± 3.9 µM·h, the half-life is 8.05 ± 0.62 h, the clearance stood at 0.0558 ± 0.0108 L/h/kg and the AUC was determined as 20.7 ± 3.7 µM·h. In series [4] (0.5 mg/kg, intact dog, 0.5 mg/kg IV bolus, read-out: V dss), the Vd amounted to 0.72 ± 0.13 L/kg.
`C[C@H]1c2cccc(CC(C)(C)O)c2C[C@H](CO)N1C(=O)Cc1c(Cl)cccc1Cl` [DPTQ, 2‐(2,6‐dichlorophenyl)‐1‐((1S,3R)‐5‐(2‐hydroxy‐2‐methylpropyl)‐3‐(hydroxymethyl)‐1‐methyl‐3,4‐dihydroisoquinolin‐2(1H)‐yl)ethan‐1‐one]: in series [1] (setting [5]), the hepatocyte CLint at 0.3 µmol/L is 18.3 ± 5.9 µL/min/1e6 cells. For the same molecule, in series [1] (setting [6]), the hepatocyte CLint at 0.3 µmol/L was 38.6 ± 8.5 µL/min/1e6 cells. Also, in series [2], the “percentage of the metabolism not inhibited by ABT” value is reported as 53.5%; the “% of inhibition by ABT” value was 46.5% and 46.5 ± 6.6%; the “Hepatic fm by UGT” value was “Moderate (moderate 30%‐70%)”. In addition, in series [3] (BDC dog), the “% dose in feces, Parent” value is given as 2.48 ± 4.8 % dose; the “% dose in bile, Parent” value was 8.91 % dose and 8.91 ± 8.9 % dose. Further, in series [3], the “renal excretion of parent drug” value is < 1 % of dose, the “Biliary excretion % of glucuronide” value is given as “Moderate (moderate 30%‐70%)” and the “Urinary excretion % of glucuronide” value is recorded as “Low (Low 0%‐30%)”. Besides, in series [3] (intact dog), the “% dose in feces, Parent” value is 13.5 ± 5.8 ^a % dose and the “% dose in urine, Parent” value was 0.64 ± 1.1 % dose. Moreover, the EHC result in series [4] is given as “Yes”. Besides, the “CL0‐48 h” value in series [4] (intact dog, 0.5 mg/kg IV bolus, AUCinf not extrapolated, CL from AUC0‐48 hours, 0.5 mg/kg) was 0.164 L/h/kg and 0.164 ± 0.072 L/h/kg. In addition, in series [4] (setting [7]), the AUC(0-inf) is 5.89 ± 3.3 µM·h, the half-life was 2.5 ± 2.3 h, the clearance amounted to 0.266 ± 0.186 L/h/kg and the AUC was determined as 5.89 ± 3.3 µM·h. Further, the Vd in series [4] (setting [8]) came out at 0.33 ± 0.07 L/kg. Besides, the AUC in series [4] (setting [9]) stood at 7.94 ± 2.5 µM·h. Also, the Vd in series [4] (0.5 mg/kg, intact dog, 0.5 mg/kg IV bolus, AUCinf not extrapolated, read-out: V dss 0‐48 hr) was 1.48 ± 0.25 L/kg.
